In brackets after ≈: the same amount, converted by molar mass. Several values for one entry are separate records, joined by “and”; a condition that tells them apart may be missing. Identical values can stand only once. Like-named read-outs stand apart in the source and are kept apart here.
How the values were obtained:
Assay in all cases: Antimicrobial activity assay (broth microdilution MIC)
Format in all cases: cell-based
[1] = system: Escherichia coli 120 (AcrAB−); details: for MIC: Escherichia coli; for MIC E. coli 120 AcrAB—: individual results, panel run 2 times
Procedure: (§1) Whole-cell antimicrobial activity was determined by broth microdilution using the Clinical and Laboratory Standards Institute (CLSI, formerly NCCLS) recommended methodology (NCCLS Document M7-A6, “Methods for Dilution Susceptibility Tests for Bacteria that Grow Aerobically Approved Standard Sixth Edition”, 2003). Compounds were tested in serial two-fold dilutions ranging from 64 to 0.06 μg/mL. A panel of 12 strains was evaluated in the assay. This panel consisted of the following laboratory strains: Staphylococcus aureus Oxford, Staphylococcus aureus WCUH29, Enterococcus faecalis I, Enterococcus faecalis 7, Haemophilus influenzae Q1, Haemophilus influenzae NEMC1, Moraxella catarrhalis 1502, Streptococcus pneumoniae 1629, Streptococcus pneumoniae N1387, Streptococcus pneumoniae Ery2, Escherichia coli 7623 (AcrABEFD+) and Escherichia coli 120 (AcrAB−). The minimum inhibitory concentration (MIC) was determined as the lowest concentration of compound that inhibited visible growth. A mirror reader was used to assist in determining the MIC endpoint.

[2] = system: Escherichia coli 7623 (AcrABEFD+); details: for MIC: Escherichia coli, read-out: MIC E. coli 7623 AcrABEFD+
Procedure: as §1

[3] = system: Haemophilus influenzae NEMC1; details: for MIC: Haemophilus influenzae, read-out: MIC H. influenzae NEMC1
Procedure: as §1

[4] = system: Haemophilus influenzae Q1; details: for MIC: Haemophilus influenzae, read-out: MIC H. influenzae Q1; for MIC H. influenzae Q1: individual results
Procedure: as §1

Enterococcus faecalis 7 = details: median of all results obtained, read-out: MIC E. faecalis 7
Procedure: as §1

Enterococcus faecalis I = details: median of all results obtained, read-out: MIC E. faecalis I
Procedure: as §1

[5] = system: Staphylococcus aureus Oxford; details: median of all results obtained, read-out: MIC S. aureus Oxford
Procedure: as §1

[6] = system: Streptococcus pneumoniae 1629; details: median of all results obtained, read-out: MIC S. pneumoniae 1629
Procedure: as §1

[7] = system: Streptococcus pneumoniae N1387; details: median of all results obtained, read-out: MIC S. pneumoniae N1387
Procedure: as §1

[8] = individual results, panel run 2 times
[9] = NEMC1, individual results, panel run 2 times
[10] = Q1, individual results, panel run 2 times
[11] = read-out: MIC E. coli 120 AcrAB—, median of all results obtained
[12] = NEMC1, median of all results obtained
[13] = Q1, median of all results obtained

Structure (SMILES): CN1CCN(c2nc(Cl)nc(NNC(=O)[C@H](CC3CCCC3)CN(O)C=O)c2F)CC12CC2 [Example 172, [(2R)-3-{2-[2-Chloro-5-fluoro-6-(4-methyl-4,7-diazaspiro[2.5]oct-7-yl)-4-pyrimidinyl]hydrazino}-2-(cyclopentylmethyl)-3-oxopropyl]hydroxyformamide]
- MIC ([1]; read-out: MIC E. coli 120 AcrAB—, individual results, panel run 2 times): 0.125 to 0.5 µg/mL (≈ 0.258 to 1.03 µM)
- MIC E. coli 7623 AcrABEFD+ [2, 8]: 4 µg/mL and 16 µg/mL
- MIC [3, 9]: 1 µg/mL (≈ 2.07 µM)
- MIC H. influenzae NEMC1 [3, 8]: 2 µg/mL (≈ 4.13 µM)
- MIC [4, 10]: 1 µg/mL (≈ 2.07 µM)
- MIC H. influenzae Q1 ([4]; panel run 2 times): 2 µg/mL (≈ 4.13 µM)

Structure (SMILES): C[C@@H]1CN(C)CCN1c1nc(Cl)nc(NNC(=O)[C@H](CC2CCCC2)CN(O)C=O)c1F [Example 63, [(2R)-3-(2-{2-Chloro-6-[(2R)-2,4-dimethyl-1-piperazinyl]-5-fluoro-4-pyrimidinyl}hydrazino)-2-(cyclopentylmethyl)-3-oxopropyl]hydroxyformamide]
- MIC [1, 11]: 0.25 µg/mL (≈ 0.53 µM)
- MIC ([2]; median of all results obtained): 4 µg/mL (≈ 8.48 µM)
- MIC [3, 12]: 0.5 µg/mL (≈ 1.06 µM)
- MIC [4, 13]: 0.25 µg/mL (≈ 0.53 µM)

Structure (SMILES): Cc1nc(NNC(=O)[C@H](CC2CCCC2)CN(O)C=O)c(F)c(N2CCN(C)C3(CC3)C2)n1 [Example 275, ((2R)-2-(Cyclopentylmethyl)-3-{2-[5-fluoro-2-methyl-6-(4-methyl-4,7-diazaspiro[2.5]oct-7-yl)-4-pyrimidinyl]hydrazino}-3-oxopropyl)hydroxyformamide]
- MIC E. coli 120 AcrAB— [1]: ≦0.06, μg/mL and 0.5 μg/mL
- MIC E. coli 7623 AcrABEFD+ [2, 8]: 4 µg/mL and 16 µg/mL
- MIC [3, 9]: 1 µg/mL (≈ 2.16 µM)
- MIC [4, 10]: 0.5 µg/mL (≈ 1.08 µM)
- MIC H. influenzae Q1 ([4]; panel run 2 times): 1 µg/mL (≈ 2.16 µM)

Structure (SMILES): Cc1nc(NNC(=O)[C@H](CC2CCCC2)CN(O)C=O)c(F)c(N2CCN(C)C[C@H]2C)n1 [Example 109, [(2R)-2-(Cyclopentylmethyl)-3-(2-{6-[(2R)-2,4-dimethyl-1-piperazinyl]-5-fluoro-2-methyl-4-pyrimidinyl}hydrazino)-3-oxopropyl]hydroxyformamide]
- MIC E. coli 120 AcrAB— [1]: ≦0.06, μg/mL and 0.125 μg/mL
- MIC [2, 8]: 8 µg/mL (≈ 17.7 µM)
- MIC [3, 9]: 1 µg/mL (≈ 2.21 µM)
- MIC [4, 10]: 0.5 µg/mL (≈ 1.11 µM)

Structure (SMILES): Cc1nc(NNC(=O)[C@H](CC2CCCC2)CN(O)C=O)c(F)c(N2CCN3CCOC[C@@H]3C2)n1 [Example 24, [(2R)-2-(Cyclopentylmethyl)-3-(2-{5-fluoro-6-[(9aS)-hexahydropyrazino[2,1-c][1,4]oxazin-8(1H)-yl]-2-methyl-4-pyrimidinyl}hydrazino)-3-oxopropyl]hydroxyformamide]
- MIC (Enterococcus faecalis 7): 32 µg/mL (≈ 66.7 µM)
- MIC (Enterococcus faecalis I): 48 µg/mL (≈ 100 µM)
- MIC [1, 11]: 0.188 µg/mL (≈ 0.391 µM)
- MIC ([2]; median of all results obtained): 16 µg/mL (≈ 33.4 µM)
- MIC [3, 12]: 1 µg/mL (≈ 2.09 µM)
- MIC [4, 13]: 0.5 µg/mL (≈ 1.04 µM)
- MIC [5]: 2 µg/mL (≈ 4.17 µM)
- MIC [6]: 0.75 µg/mL (≈ 1.56 µM)
- MIC [7]: 0.5 µg/mL (≈ 1.04 µM)

— patent publication US20130045962A1, “PEPTIDE DEFORMYLASE INHIBITORS” (priority 2007, published 2013)
